Laboratory results published in patent US11932624B2, “MDM2 degraders and uses thereof” (Kymera Therapeutics, Inc., priority 2020, dated 2024).

The molecules below were run on RS411 cells (assay: Cell Viability CTG Assay (CellTiter Glo) in RS411 cells). Settings: Homo sapiens, RS4-11, 24 h, duration 1 day.
Format: cell-based
Procedure: Example 23. Cell Viability CTG Assay
Day 0: Compounds or DMSO 60 nL were stamped to the cell plate as the platemap. RS411 cells were centrifuged at 800 rpm for 5 min, suspended with culture medium, and counted with Countess (Invitrogen). The cell density was adjusted to the recommend information. 30 μL of cell solution (1000 cells/well) was added to the assay plate as the platemap and 30 uL of media was added to column 2 and column 23 as the platemap. The plate was spun down briefly. The final concentration of the compounds started at 10 μM (3 fold dilution and 11 doses) and final DMSO concentration was 0.2%. The plate was spun down briefly and incubated at 37° C., 5% CO2 for 1-4 days.
30 μL CellTiter Glo reagent was added to each well and the plate was centrifuged at 1000 rpm for 30 sec. The plate was shaken for 1 min and centrifuged at 1000 rpm for 30 sec. The plate was incubated at RT for 10 min to stabilize the luminescent signal and the luminescence was read by EnVision.
The letter codes for IC50 indicate the concentration of compound required to affect 50% of cells: A (<0.05 μM), B (0.05-0.1 μM), C (0.1-0.5 μM), D (0.5-1.0 μM), and E (>1.0 μM).

First: CCN1[C@@H](C(=O)NC23CCC(C(=O)NCCCCCc4ccc5c(c4)n(C)c(=O)n5C4CCC(=O)NC4=O)(CC2)CC3)[C@H](c2cccc(Cl)c2F)[C@]2(C(=O)Nc3cc(Cl)ccc32)C12CCCCC2 (some centres unmarked) [I-42]
Second: CN(C(=O)c1ccc(NC(=O)[C@@H]2NC3(CCCCC3)[C@@]3(C(=O)Nc4cc(Cl)ccc43)[C@H]2c2cccc(Cl)c2F)cc1)C1CCC2(CC1)CC(Cc1cccc3c1n(C)c(=O)n3C1CCC(=O)NC1=O)C2 (some centres unmarked) [I-45]
The IC50 of the first is lower: less than 50 nM for the first, 100 to 500 nM for the second. The first is the more potent here.

`Cn1c(=O)n(C2CCC(=O)NC2=O)c2cccc(C#CCOC3CCN(C(=O)c4ccc(NC(=O)[C@@H]5NC6(CCCCC6)[C@@]6(C(=O)Nc7cc(Cl)ccc76)[C@H]5c5cccc(Cl)c5F)cc4)CC3)c21` (stereo partly drawn) [I-43, (3′R,4'S,5′R)-6″-chloro-4′-(3-chloro-2-fluorophenyl)-N-(4-(4-((3-(1-(2,6-dioxopiperidin-3-yl)-3-methyl-2-oxo-2,3-dihydro-1H-benzo[d]imidazol-4-yl)prop-2-yn-1-yl)oxy)piperidine-1-carbonyl)phenyl)-2″-oxodispiro[cyclohexane-1,2′-pyrrolidine-3′,3″-indoline]-5′-carboxamide] and `Cn1c(=O)n(C2CCC(=O)NC2=O)c2cccc(OC3CC4(CCN(C(=O)c5ccc(NC(=O)[C@@H]6NC7(CCCCC7)[C@@]7(C(=O)Nc8cc(Cl)ccc87)[C@H]6c6cccc(Cl)c6F)cc5)CC4)C3)c21` (some centres unmarked) [I-44] cannot be ordered by IC50: less than 50 nM for the first, less than 50 nM for the second.

Same assay, conditions: Homo sapiens, RS4-11, 72 h, duration 3 days

First: CC(C)[C@@H](CS(=O)(=O)C(C)C)N1C(=O)[C@@](C)(CC(=O)Nc2ccc(C(=O)NCCCC#Cc3cccc4c3CN(C3CCC(=O)NC3=O)C4=O)cc2)C[C@H](c2cccc(Cl)c2)[C@H]1c1ccc(Cl)cc1 (some centres unmarked) [I-27]
Second: COc1cc(C(=O)NCCCCCc2cccc3c2n(C)c(=O)n3C2CCC(=O)NC2=O)ccc1NC(=O)[C@@H]1N[C@@H](CC(C)(C)C)[C@](C#N)(c2ccc(Cl)cc2F)[C@H]1c1cccc(Cl)c1F (some centres unmarked) [I-28]
The IC50 of the first is higher: 100 to 500 nM for the first, less than 50 nM for the second. The second is the more potent here.

Same assay, conditions: Homo sapiens, RS4-11, 96 h, duration 4 days

`CCOc1cc(C(C)(C)C)ccc1C1=N[C@@H](c2ccc(Cl)cc2)[C@@H](c2ccc(Cl)cc2)N1C(=O)N1CCN(CC#Cc2cccc3c2CN(C2CCC(=O)NC2=O)C3=O)CC1` (stereo partly drawn) [I-4, 3-[4-[3-[4-[(4S,5R)-2-(4-tert-butyl-2-ethoxy-phenyl)-4,5-bis(4-chlorophenyl)-4,5-dihydroimidazole-1-carbonyl]piperazin-1-yl]prop-1-ynyl]-1-oxo-isoindolin-2-yl]piperidine-2,6-dione] and `CC(C)[C@@H](CS(=O)(=O)C(C)C)N1C(=O)[C@@](C)(CC(=O)NCCCCCCC#Cc2cccc3c2CN(C2CCC(=O)NC2=O)C3=O)C[C@H](c2cccc(Cl)c2)[C@H]1c1ccc(Cl)cc1` (some centres unmarked) [I-26] fall in the same range of IC50: 50 to 100 nM for the first, 50 to 100 nM for the second.

Going from `CC(C)[C@@H](CS(=O)(=O)C(C)C)N1C(=O)[C@@](C)(CC(=O)Nc2ccc(C(=O)NCCCOCCCN)cc2)C[C@H](c2cccc(Cl)c2)[C@H]1c1ccc(Cl)cc1` [I-5, N-[3-(3-aminopropoxy)propyl]-4-[[2-[(3R,5R,6S)-5-(3-chlorophenyl)-6-(4-chlorophenyl)-1-[(1S)-1-(isopropylsulfonylmethyl)-2-methyl-propyl]-3-methyl-2-oxo-3-piperidyl]acetyl]amino]benzamide] to `CC(C)[C@@H](CS(=O)(=O)C(C)C)N1C(=O)[C@@](C)(CC(=O)Nc2ccc(C(=O)NCCCCCc3ccc4c(c3)n(C)c(=O)n4C3CCC(=O)NC3=O)cc2)C[C@H](c2cccc(Cl)c2)[C@H]1c1ccc(Cl)cc1` (some centres unmarked) [I-14], the IC50 falls from greater than 1000 nM to less than 50 nM.

First: CC(C)[C@@H](CS(=O)(=O)C(C)C)N1C(=O)[C@@](C)(CC(=O)Nc2ccc(C(=O)NCCOCCOCCOCCNc3cccc4c3C(=O)N(C3CCC(=O)NC3=O)C4=O)cc2)C[C@H](c2cccc(Cl)c2)[C@H]1c1ccc(Cl)cc1 (stereo partly drawn) [I-6, 4-[[2-[(3R,5R,6S)-5-(3-chlorophenyl)-6-(4-chlorophenyl)-1-[(1S)-1-(isopropylsulfonylmethyl)-2-methyl-propyl]-3-methyl-2-oxo-3-piperidyl]acetyl]amino]-N-[2-[2-[2-[2-[[2-(2,6-dioxo-3-piperidyl)-1,3-dioxo-isoindolin-4-yl]amino]ethoxy]ethoxy]ethoxy]ethyl]benzamide]
Second: CC(C)[C@@H](CS(=O)(=O)C(C)C)N1C(=O)[C@@](C)(CC(=O)NCCCCCCCCc2ccc3c(c2)n(C)c(=O)n3C2CCC(=O)NC2=O)C[C@H](c2cccc(Cl)c2)[C@H]1c1ccc(Cl)cc1 (some centres unmarked) [I-21]
The IC50 of the first is higher: 100 to 500 nM for the first, 50 to 100 nM for the second.

First: COc1cc(C(=O)NCCCOCCCN)ccc1NC(=O)[C@@H]1N[C@@H](CC(C)(C)C)[C@](C#N)(c2ccc(Cl)cc2F)[C@H]1c1cccc(Cl)c1F [I-7]
Second: COc1cc(C(=O)NCCCCCc2ccc3c(c2)n(C)c(=O)n3C2CCC(=O)NC2=O)ccc1NC(=O)[C@@H]1N[C@@H](CC(C)(C)C)[C@](C#N)(c2ccc(Cl)cc2F)[C@H]1c1cccc(Cl)c1F (some centres unmarked) [I-16]
The IC50 of the first is higher: greater than 1000 nM for the first, less than 50 nM for the second.

`CC(C)[C@@H](CS(=O)(=O)C(C)C)N1C(=O)[C@@](C)(CC(=O)Nc2ccc(C(=O)NCCCCCCCNC(=O)c3ccc(NC(=O)C[C@@]4(C)C[C@H](c5cccc(Cl)c5)[C@@H](c5ccc(Cl)cc5)N([C@H](CS(=O)(=O)C(C)C)C(C)C)C4=O)cc3)cc2)C[C@H](c2cccc(Cl)c2)[C@H]1c1ccc(Cl)cc1` [I-8, 4-[2-[(3R,5R,6S)-5-(3-chlorophenyl)-6-(4-chlorophenyl)-3-methyl-1-[(2S)-3-methyl-1-(propane-2-sulfonyl)butan-2-yl]-2-oxopiperidin-3-yl]acetamido]-N-[7-[(4-[2-[(3R,5R,6S)-5-(3-chlorophenyl)-6-(4-chlorophenyl)-3-methyl-1-[(2S)-3-methyl-1-(propane-2-sulfonyl)butan-2-yl]-2-oxopiperidin-3-yl]acetamido]phenyl)formamido]heptyl]benzamide] and `CC(C)[C@@H](CS(=O)(=O)C(C)C)N1C(=O)[C@@](C)(CC(=O)NCCCCCCCCCCCNC(=O)C[C@@]2(C)C[C@H](c3cccc(Cl)c3)[C@@H](c3ccc(Cl)cc3)N([C@H](CS(=O)(=O)C(C)C)C(C)C)C2=O)C[C@H](c2cccc(Cl)c2)[C@H]1c1ccc(Cl)cc1` [I-23] cannot be ordered by IC50: greater than 1000 nM for the first, greater than 1000 nM for the second.

`Cn1c(=O)n(C2CCC(=O)NC2=O)c2ccc(CCCCCNC(=O)c3ccc(NC(=O)[C@@H]4NC5(CCCCC5)[C@@]5(C(=O)Nc6cc(Cl)ccc65)[C@H]4c4cccc(Cl)c4F)cc3)cc21` (some centres unmarked) [I-9] and `O=C1CCC(N2Cc3c(C#CCCCNC(=O)c4ccc(NC(=O)[C@@H]5NC6(CCCCC6)[C@@]6(C(=O)Nc7cc(Cl)ccc76)[C@H]5c5cccc(Cl)c5F)cc4)cccc3C2=O)C(=O)N1` (some centres unmarked) [I-29] cannot be ordered by IC50: less than 50 nM for the first, less than 50 nM for the second.

Compared with `Cc1ncsc1-c1ccc(CNC(=O)[C@@H]2C[C@@H](O)CN2C(=O)[C@@H](NC(=O)CCCCCCCNC(=O)C[C@@]2(C)C[C@H](c3cccc(Cl)c3)[C@@H](c3ccc(Cl)cc3)N([C@H](CS(=O)(=O)C(C)C)C(C)C)C2=O)C(C)(C)C)cc1` [I-10], `Cc1ncsc1-c1ccc(CNC(=O)[C@@H]2C[C@@H](O)CN2C(=O)[C@@H](NC(=O)CCCNC(=O)C[C@@]2(C)C[C@H](c3cccc(Cl)c3)[C@@H](c3ccc(Cl)cc3)N([C@H](CS(=O)(=O)C(C)C)C(C)C)C2=O)C(C)(C)C)cc1` [I-11] is higher in IC50: 100 to 500 nM for the first, greater than 1000 nM for the second. The first is the more potent here.

First: Cc1ncsc1-c1ccc(CNC(=O)[C@@H]2C[C@@H](O)CN2C(=O)[C@@H](NC(=O)CCCCCCCNC(=O)c2ccc(NC(=O)[C@@H]3NC4(CCCCC4)[C@@]4(C(=O)Nc5cc(Cl)ccc54)[C@H]3c3cccc(Cl)c3F)cc2)C(C)(C)C)cc1 [I-12]
Second: Cc1ncsc1-c1ccc(CNC(=O)[C@@H]2C[C@@H](O)CN2C(=O)[C@@H](NC(=O)CCCNC(=O)c2ccc(NC(=O)[C@@H]3NC4(CCCCC4)[C@@]4(C(=O)Nc5cc(Cl)ccc54)[C@H]3c3cccc(Cl)c3F)cc2)C(C)(C)C)cc1 [I-13]
The IC50 of the first is lower: 50 to 100 nM for the first, 500 to 1000 nM for the second. The first is the more potent here.

`COc1cc(C(=O)NCCCC#Cc2ccc3c(c2)n(C)c(=O)n3C2CCC(=O)NC2=O)ccc1NC(=O)[C@@H]1N[C@@H](CC(C)(C)C)[C@](C#N)(c2ccc(Cl)cc2F)[C@H]1c1cccc(Cl)c1F` (some centres unmarked) [I-17] and `COc1cc(C(=O)NCCCC#Cc2cccc3c2n(C)c(=O)n3C2CCC(=O)NC2=O)ccc1NC(=O)[C@@H]1N[C@@H](CC(C)(C)C)[C@](C#N)(c2ccc(Cl)cc2F)[C@H]1c1cccc(Cl)c1F` (some centres unmarked) [I-30] cannot be ordered by IC50: less than 50 nM for the first, less than 50 nM for the second.

Compared with `COc1cc(C(=O)NCCCCCCCC(=O)N[C@H](C(=O)N2C[C@H](O)C[C@H]2C(=O)NCc2ccc(-c3scnc3C)cc2)C(C)(C)C)ccc1NC(=O)[C@@H]1N[C@@H](CC(C)(C)C)[C@](C#N)(c2ccc(Cl)cc2F)[C@H]1c1cccc(Cl)c1F` [I-19], `COc1cc(C(=O)NCCCC(=O)N[C@H](C(=O)N2C[C@H](O)C[C@H]2C(=O)NCc2ccc(-c3scnc3C)cc2)C(C)(C)C)ccc1NC(=O)[C@@H]1N[C@@H](CC(C)(C)C)[C@](C#N)(c2ccc(Cl)cc2F)[C@H]1c1cccc(Cl)c1F` [I-20] is higher in IC50: less than 50 nM for the first, 100 to 500 nM for the second.

First: COc1cc(C(=O)NCCCC#Cc2cccc3c2CN(C2CCC(=O)NC2=O)C3=O)ccc1NC(=O)[C@@H]1N[C@@H](CC(C)(C)C)[C@](C#N)(c2ccc(Cl)cc2F)[C@H]1c1cccc(Cl)c1F (some centres unmarked) [I-31]
Second: COc1cc(C(=O)NCCCCCCCCNC(=O)c2ccc(NC(=O)[C@@H]3N[C@@H](CC(C)(C)C)[C@](C#N)(c4ccc(Cl)cc4F)[C@H]3c3cccc(Cl)c3F)c(OC)c2)ccc1NC(=O)[C@@H]1N[C@@H](CC(C)(C)C)[C@](C#N)(c2ccc(Cl)cc2F)[C@H]1c1cccc(Cl)c1F [I-32]
The IC50 of the first is lower: less than 50 nM for the first, 100 to 500 nM for the second. The first is the more potent here.

For `COc1cc(C(=O)NCCOCCOCCNC(=O)c2ccc(NC(=O)[C@@H]3N[C@@H](CC(C)(C)C)[C@](C#N)(c4ccc(Cl)cc4F)[C@H]3c3cccc(Cl)c3F)c(OC)c2)ccc1NC(=O)[C@@H]1N[C@@H](CC(C)(C)C)[C@](C#N)(c2ccc(Cl)cc2F)[C@H]1c1cccc(Cl)c1F` [I-33], the IC50 was greater than 1000 nM.
